Assay [1] concerns ERK1/2 phosphorylation of p90RSK in HT29 cells. The assay is described as follows: pRSK MSD Assay in HT29 cells. The class given is cell-based. Particulars: Homo sapiens, HT-29, read-out: ERK1/ERK2 PRSK MSD HT29 EC50. The procedure, abridged: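 Phospho-RSK level, read by electrochemiluminescence on RSK-antibody-coated MSD plates with a phospho-RSK/Sulfo-tag detection pair, reports cellular ERK1/2 activity. HT29 cells, kept overnight in 0.1% FBS medium, were exposed to compound for 120 min at 37° C before lysis.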

Another assay deals with T1, Erk1 (Homo sapiens, UniProt P27361).
T1 construct: purchased Millipore 14-439
T1 sequence (P27361 whole entry): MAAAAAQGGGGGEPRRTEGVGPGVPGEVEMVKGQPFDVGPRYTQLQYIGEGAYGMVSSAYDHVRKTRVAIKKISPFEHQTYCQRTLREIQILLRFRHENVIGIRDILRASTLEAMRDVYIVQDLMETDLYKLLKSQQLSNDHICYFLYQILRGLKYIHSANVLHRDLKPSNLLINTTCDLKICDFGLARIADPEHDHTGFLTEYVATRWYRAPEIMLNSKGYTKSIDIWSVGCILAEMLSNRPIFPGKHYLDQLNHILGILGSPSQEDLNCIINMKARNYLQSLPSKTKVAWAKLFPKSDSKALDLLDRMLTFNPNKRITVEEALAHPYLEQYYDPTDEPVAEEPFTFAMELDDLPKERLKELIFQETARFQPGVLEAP
The assay is described as follows: Protein Mass Modification Assay (intact protein MALDI, 60 min, 10-fold excess of compound). In kind it is binding. The method, then:
Protein Mass Modification Assay
Intact protein: Erk1 from Millipore (Cat. No. 14-439) was incubated for 60 min. at room temperature with a 10-fold excess of test compound to protein. 4 μL aliquots of the resulting mixture were diluted with 15 μL of 0.2% TFA prior to micro C4 ZipTipping directly onto the MALDI target using sinapinic acid as the desorption matrix (10 mg/ml in 0.1% TFA:Acetonitrile 50:50, v/v). The centroid mass of the target protein in the control sample was compared with the centroid mass of the target protein incubated with compound. A shift in the centroid mass of the treated protein compared to the untreated protein was divided by the molecular weight of the compound. This number corresponds to the percentage of modified protein after one hour incubation. Results from this assay are reported in Table A under the column “ERK1 Mass Mod (%).”

Assay [2] relates to A375 cells (malignant melanoma). The assay is described as follows: Inhibition of cancer cell proliferation, A375 (CellTiterGlo, 72 hours). In kind it is cell-based. Particulars: Homo sapiens, A-375. As for the experimental part:
Measurement of Inhibition of Cancer Cell Proliferation (A375/Malignant Melanoma)
The following protocol used an A375 cell line, which cell line is a model for malignant melanoma. A375 cells were split and 3000 cells in […] of growth medium were added per well of a flat-bottom 96-well plate. A two-fold test compound solution in serum-free DMEM was made, starting at 5,000 nM. Then, 3-fold serial dilutions were made across the plate from well 1 to well 11. Well 12, the last well in a row on the plate, was left as untreated control. 100 μl compound solutions were then transferred to the wells, so the total volume of media was 200 μl per well. Plates were returned to a 37° C. incubator, and the cells were cultured for 72 hours. To measure cell proliferation after 72 hours, media was discarded from the plates, 50 μl/well of fresh medium was added, and 50 μl CellTiterGlo solution was added (Promega Cat#G7573). The plate was covered with a dark lid and incubated for 10 min. A white sealing tape was applied to the bottom of the plate, and the plate was read in a luminescence plate reader. […] 50 μl CellTiterGlo was added per well, and the plate was read in a luminescence plate reader after 10 min. The reading was plotted vs. cell number to generate a standard curve and the equation of the curve fit. The compound-treated sample luminescence readings were converted to cell numbers using the curve-fit equation. The percent of inhibition, using untreated control as 100% growth, was then calculated. GI50 was then calculated by GraphPad Prism.

The subject of assay [3] is HT-29 cells (colorectal adenocarcinoma). The assay can be described thus: Inhibition of cancer cell proliferation, HT-29 (CellTiterGlo, 72 hours). Particulars: Homo sapiens. The class given is cell-based. In short, it runs like this: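 Proliferation over 72 h at 37° C was read by CellTiterGlo luminescence, translated to cell counts with a cell-density standard curve (390–50,000 cells). Compound added as 3-fold dilutions from a 5,000 nM two-fold stock to 3000 seeded HT-29 cells; GI50 from percent inhibition relative to untreated wells.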
In general terms: Cellular ATP, detected with luciferase, serves as a proxy for viable cell number.

A further assay deals with T2, MEK1 activated ERK1 (Homo sapiens, UniProt P27361).
T2 construct: purchased Millipore (Billerica, Mass.) 14-439-K
T2 sequence (P27361 whole entry): as above
The assay can be described thus: Omnia continuous-read kinase assay for potency against MEK1 activated ERK1. Particulars: MEK1 activated ERK1, ATP at KM; read-out: ERK1 Omnia WT ATP KM IC50. The class given is biochemical. The procedure, abridged: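 Apparent IC50 came from initial reaction slopes (RFU vs time) plotted against log inhibitor with a variable-slope fit. Reactions were started with ERK1 (4 nM final) added to 50 μM ATP, roughly at its appKM, and 10 μM Sox-conjugated ST17 peptide in 20 mM Tris pH 7.5, 5 mM MgCl2. Fluorescence was monitored every 71 seconds.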

Molecules are shown by their SMILES.

The record followed here is patent publication US9561228B2 (Celgene Avilomics Research, Inc., priority 2013, dated 2017).

For the compound `C=CC(=O)N[C@H]1CCCC[C@@H]1Nc1nc(N[C@H]2CCCN(C(=O)CO)C2)ncc1C(F)(F)F` (racemic) [Compound I-27, Rac-N-(2-((2-(((R)-1-(2-hydroxyacetyl)piperidin-3-yl)amino)-5-(trifluoromethyl)pyrimidin-4-yl)amino)-trans-cyclohexyl)acrylamide], in assay [1], the EC50 lay in the range of 501 to 999 nM. Moreover, on Erk1, the “ERK1 Mass Mod (%)” value is “F (key: E: a mass modification of ≧70%; F: a mass modification of 31-69%; G: a mass modification ≦30%)”.
On to `C=CC(=O)Nc1ccccc1Nc1nc(N[C@H]2CC[C@H](F)CC2)ncc1C(F)(F)F` [Compound I-111, N-(2-((2-(trans-(4-fluorocyclohexyl)amino)-5-(trifluoromethyl)pyrimidin-4-yl)amino)phenyl)acrylamide], for which the “ERK1 Mass Mod (%)” value at Erk1 was “E (a mass modification of ≧70%)”.
As usually defined, the GI50 is the concentration that inhibits growth by half. A lower GI50 goes with more potent growth inhibition. What is called IC50 is the concentration at which inhibition is half-maximal. Turning to `C=CC(=O)Nc1ccccc1Nc1nc(Nc2cc(C(=O)NC)c(F)cc2C)ncc1Cl` [Compound I-231, 5-((4-((2-acrylamidophenyl)amino)-5-chloropyrimidin-2-yl)amino)-2-fluoro-N,4-dimethylbenzamide], the GI50 in assay [2] and in assay [3] was under 100 nM in each case. Further, the EC50 in assay [1] lay within 101 to 500 nM. Also, the 50% inhibitory concentration (IC50) at MEK1 activated ERK1 lay within 101 to 500 nM.
In the case of `C=CC(=O)Nc1ccccc1Nc1nc(Nc2cc(C(=O)NCCO)c(F)cc2C)ncc1Cl` [Compound I-232, 5-((4-((2-acrylamidophenyl)amino)-5-chloropyrimidin-2-yl)amino)-2-fluoro-N-(2-hydroxyethyl)-4-methylbenzamide], the results for the GI50 in assay [2] and in assay [3] were 101 to 500 nM and under 100 nM, respectively. Also, the EC50 in assay [1] was 101 to 500 nM. The IC50 on MEK1 activated ERK1 fell in the range of 101 to 500 nM.
As for `C=CC(=O)Nc1cc(C)ccc1Nc1nc(Nc2cc(C(=O)NC)c(F)cc2C)ncc1Cl` [Compound I-233, 5-((4-((2-acrylamido-4-methylphenyl)amino)-5-chloropyrimidin-2-yl)amino)-2-fluoro-N,4-dimethylbenzamide], the 50% growth inhibitory concentration (GI50) in assay [2] and in assay [3] was 101 to 500 nM in each case. The EC50 in assay [1] was in the range of 101 to 500 nM. In addition, the IC50 on MEK1 activated ERK1 is 101 to 500 nM.
Consider `C=CC(=O)Nc1cc(C)ccc1Nc1nc(Nc2cc(C(=O)NCCO)c(F)cc2C)ncc1Cl` [Compound I-234, 5-((4-((2-acrylamido-4-methylphenyl)amino)-5-chloropyrimidin-2-yl)amino)-2-fluoro-N-(2-hydroxyethyl)-4-methylbenzamide], for which the GI50 in assay [2] and in assay [3] was 101 to 500 nM throughout. Further, in assay [1], the EC50 was 101 to 500 nM. Besides, the 50% inhibitory concentration (IC50) at MEK1 activated ERK1 fell in the range of 101 to 500 nM.
For the compound `C=CC(=O)Nc1cc(C)ccc1Nc1nc(Nc2ccnc(OC)c2)ncc1Cl` [Compound I-235, N-(2-((5-chloro-2-((2-methoxypyridin-4-yl)amino)pyrimidin-4-yl)amino)-5-methylphenyl)acrylamide], the GI50 in assay [2] and in assay [3] was under 100 nM each time. Besides, the EC50 in assay [1] is under 100 nM. On MEK1 activated ERK1, the half-inhibitory concentration (IC50) is 101 to 500 nM.
Take `C=CC(=O)Nc1cc(C)ccc1Nc1nc(Nc2ccncc2C)ncc1Cl` [Compound I-236, N-(2-((5-chloro-2-((3-methylpyridin-4-yl)amino)pyrimidin-4-yl)amino)-5-methylphenyl)acrylamide]: the GI50 in assay [2] is under 100 nM; in assay [3] it was 101 to 500 nM. Moreover, in assay [1], the EC50 was 101 to 500 nM. The 50% inhibitory concentration (IC50) at MEK1 activated ERK1 is 101 to 500 nM.
Take `CC(=O)N1CCC[C@H](Nc2ncc(C(F)(F)F)c(N[C@H]3[C@@H](C(N)=O)[C@@H]4C=C[C@H]3C4)n2)C1` [Compound I-308, (1S,2S,3R,4R)-3-((2-(((S)-1-acetylpiperidin-3-yl)amino)-5-(trifluoromethyl)pyrimidin-4-yl)amino)bicyclo[2.2.1]hept-5-ene-2-carboxamide]: the GI50 in assay [2] and in assay [3] was 101 to 500 nM throughout. Also, the EC50 in assay [1] was over 1000 nM. For the same compound, the 50% inhibitory concentration (IC50) at MEK1 activated ERK1 is 101 to 500 nM.
